Assay results taken from US20260234188A1, “CHEMOKINE-BINDING PEPTIDES” (Oxford University Innovation Limited, priority 2022, published 2026).
Ends that are not written are not given here. Peptide text beside a SMILES is read from it.

What was measured:
CCL14 = target: T1, CCL14 (Homo sapiens, UniProt Q16627); assay: CCL14-induced cell migration assay; assay type: cell-based; settings: HD2 mutant peptides 10 μM, chemokine at EC80
T1 sequence (Q16627 20-93): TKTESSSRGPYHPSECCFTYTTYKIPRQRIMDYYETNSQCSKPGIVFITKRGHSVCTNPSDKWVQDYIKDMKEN
Protocol: FIGS. 24 and 25. Effect of exemplar mutant HD2 peptides on chemotaxis. Box-whisker plots showing the effect of the exemplar mutant HD2 peptides on cell migration induced by indicated human chemokines. All experiments were performed as at least three technical and between one to three biological replicates, and individual data points are indicated. […] Chemokine and cell type names are indicated. HD2SCR is a scrambled version of HD2 used as negative control. All peptides were at 10 μM final concentration and chemokines at EC80 doses. […]
The J:CXCR1 cell line was generated by transfecting Jurkat cells by electroporation with PvuI-linearized plasmid D1398 and selecting with blasticidin (Sigma-Aldrich, Cat #203350, 5 g/mL). […] Cell counts were determined by Attune NxT Flow Cytometer Plate Reader (ThermoFisher), based on cell size parameters FSC-H/SSC-H. Experiments were performed in 3 technical and 3 biological replicates. […] Statistical significances between control experimental groups was evaluated using Dunnett's test. […] EC80 was calculated by fitting a chemokine dose-response curve with 3 parameters (fixing the top to 100%). IC50 was calculated by fitting an inhibitor response curve with 4 parameters. […]

CXCL12 = CXCL12 (Homo sapiens, UniProt P48061); assay type: cell-based; design: activity in inhibiting migration of activated T cells in comparison to HD2_Y5W: dose or concentration left out as unconfirmed; settings: chemokine at EC80; for chemotaxis compared with the parental HD2 peptide: HD2 mutant peptides 10 μM
Protocol: FIG. 22. Effect of selected combinatorial HD2 mutations on chemotaxis. FIG. 22A. Box-whisker plot showing the effect of the exemplar single and combinatorically mutant (CM) HD2 peptides on activated-T cell (ATC) migration induced by CXCL12. All experiments were performed as at least three technical and three biological replicates, and individual data points are indicated. […] HD2SCR is a scrambled version of HD2. […] Statistically significant differences (compared to control, HD2_Y5W, coloured blue), using Dunnett's test with correction for multiple comparisons, are indicated by asterisks: ****=P≤0.0001, ***=P≤0.001, **=P≤0.01, *=P≤0.05. All comparisons were made to HD2_Y5W, as it is present in CM539, CM452, and CM304. […] Technical replicates are shown as individual data points. […] The response curve (solid blue line) and its 95% confidence interval (grey ribbon) were calculated using a 4-parameter log-logistic plot. The agonist and estimated IC50 (dotted green line) are indicated.
The J:CXCR1 cell line was generated by transfecting Jurkat cells by electroporation with PvuI-linearized plasmid D1398 and selecting with blasticidin (Sigma-Aldrich, Cat #203350, […]). […] J:CXCR1 cells were cultured in RPMI-1640 media (Gibco), supplemented with 10% FBS and 5 mM L-Glutamine with blasticidin. For J:CXCR1 migration assays, 300,000 cells/well were added to the top chamber of a 3 μm Transwell insert (Corning) in 50 μL of migration media (RPMI-1640, 0.5% FBS, 4 mM L-Glutamine, 0.05% DMSO). The bottom chamber contained 150 μL of chemokine, with or without peptide. Cells were migrated at 37° C. in 5% CO2 for 4 hours. The plate was incubated on a shaking platform for 10 minutes, 800 rpm, at 37° C., and 150 μL from the bottom of the plate transferred into a U-bottom plate containing 50 μL of migration media. Cell counts were determined by Attune NxT Flow Cytometer Plate Reader (ThermoFisher), based on cell size parameters FSC-H/SSC-H. Experiments were performed in 3 technical and 3 biological replicates. THP-1 migration assays were carried out using methods known in the art. Activated T-cell assays were carried out using methods known in the art, with the following modifications in the isolation process. Peripheral blood cells were obtained from leucocyte cones (NHS Blood Transfusion Services), following which, T-cells were isolated using two rounds of human CD8+ T-cell isolation kit (480011, BioLegend). At day 10 after activation, T-cells were frozen at 20 E6 cells/ml in TexMACS medium supplemented with 10% DMSO (D2650, Sigma) in liquid nitrogen. Prior to use, activated T-cells were recovered for 24 hours in TexMACs medium at 0.3 E6 cells/ml and incubated at 37° C. in 5% CO2. Chemokine sources are described in Supplementary information Table 3. Statistical significances between control experimental groups was evaluated using Dunnett's test. IC50 experiments were performed at the EC80 dose of chemokine. EC80 was calculated by fitting a chemokine dose-response curve with 3 parameters (fixing the top to 100%). IC50 was calculated by fitting an inhibitor response curve with 4 parameters.
Migration assays using THP1, activated T-cell (ATC) and J:CXCR1 (Jurkat cells stably transfected with CXCR1 receptor) were performed as described previously. IC50 experiments were performed at the EC80 dose of chemokine. EC80 was calculated by fitting a chemokine dose-response curve with 3 parameters (fixing the top to 100%). IC50 was calculated by fitting an inhibitor response curve with 4 parameters. R-packages used were ggupset_0.3.0, DescTools_0.99.44, and drc_3.0-1.

Sequence of CXCL12 (P48061 22-89 limits assumed): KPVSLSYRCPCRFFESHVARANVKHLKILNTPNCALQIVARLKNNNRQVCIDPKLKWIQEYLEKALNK

| Compound | chemotaxis compared with the parental HD2 peptide (CCL14) | chemotaxis compared with the parental HD2 peptide (CXCL12) | activity in inhibiting migration of activated T cells in comparison to HD2_Y5W (CXCL12; peptides final concentration as printed) |
| --- | --- | --- | --- |
| CC(C)C[C@H](NC(=O)[C@@H]1CCCN1C(=O)[C@H](C)NC(=O)[C@H](Cc1ccc(O)cc1)NC(=O)[C@H](C)NC(=O)[C@@H](NC(=O)[C@H](Cc1ccc(O)cc1)NC(=O)[C@H](CC(=O)O)NC(=O)[C@H](CC(=O)O)NC(=O)[C@H](CCC(=O)O)NC(=O)[C@@H](N)CCC(=O)O)[C@@H](C)O)C(=O)N[C@H](C(=O)N[C@@H](CS)C(=O)N[C@@H](Cc1ccc(O)cc1)C(=O)N[C@@H](Cc1ccccc1)C(=O)N[C@@H](CS)C(N)=O)[C@@H](C)O [HD2_C16, EEDDYTAYAPLTCYFC] (H-EEDDYTAYAPLTCYFC-NH2; N-terminus assumed) | significant reduction in chemotaxis | significant reduction in chemotaxis | potent inhibitor |
| EEDDWTAYAPLTCYFT-NH2 [HD2_W5, EEDDWTAYAPLTCYFT] |  | significant reduction in chemotaxis |  |
| EEDDYTAYWPLTCYFT [A9W] |  | significant reduction in chemotaxis |  |
